Measured values published in US20030211072A1, “Compositions with enhanced oral bioavailability” (priority 2000, published 2003).
Values joined by “and” are separate entries in the source; they are usually repeats but may differ in a detail not shown here. Identical values can stand only once. Values belong to the molecule of their own block, whether it stands above or below them.

Assays:
rat everted gut sacs [1] = experiment: Everted rat intestinal sacs: tissue uptake and serosal transfer of [14C]doxorubicin, alone or with verapamil/enhancer
rat everted gut sacs [2] = settings: male, Wistar
rat everted gut sacs [3] = experiment: Gut sac viability (active glucose transport)
[4] = In vivo biodistribution of [3H]vinblastine (100 ng/kg) after oral gavage, alone or co-administered with ascophyllum, xanthan gum or polidocanol; settings: for AUC Control of [3H]Vinblastine: 100 ng/kg alone
rat everted gut sacs [5] = experiment: Everted rat intestinal sacs: tissue uptake and serosal transfer of [3H]vinblastine, alone or with verapamil/enhancer
[6] = [14C]doxorubicin 1 ng/ml alone (Control), 90 min
[7] = [14C]doxorubicin 1 ng/ml, verapamil 0 ng/ml, 60 min
[8] = [14C]doxorubicin 10 ng/ml alone (Control), 90 min
[9] = [14C]doxorubicin 100 ng/ml alone (Control), 90 min
[10] = [14C]doxorubicin (−) verapamil, 0 min
[11] = [14C]doxorubicin (−) verapamil, 30 min
[12] = [14C]doxorubicin (−) verapamil, 60 min
[13] = [14C]doxorubicin (−) verapamil, 90 min
[14] = [14C]doxorubicin (−) verapamil, 120 min
[15] = [14C]doxorubicin alone 1 ng/ml, 60 min
[16] = [14C]doxorubicin alone 3 ng/ml, 60 min
[17] = [14C]doxorubicin alone 10 ng/ml, 60 min
[18] = [14C]doxorubicin alone 100 ng/ml, 60 min
[19] = [14C]doxorubicin alone 300 ng/ml, 60 min
[20] = 5 min-24 h, vinblastine 100 ng/kg alone (control)
[21] = [3H]vinblastine 100 ng/kg alone, after 5 hours
[22] = [3H]vinblastine 100 ng/kg alone, after 24 hours
[23] = [3H]vinblastine 1 ng/ml alone (Control), 90 min
[24] = [3H]vinblastine 1 ng/ml, verapamil 0 ng/ml, 60 min
[25] = [3H]vinblastine (−) verapamil, 0 min
[26] = [3H]vinblastine (−) verapamil, 30 min
[27] = [3H]vinblastine (−) verapamil, 60 min
[28] = [3H]vinblastine (−) verapamil, 90 min
[29] = [3H]vinblastine (−) verapamil, 120 min
[30] = [3H]vinblastine alone 0.1 μg/ml, 60 min
[31] = [3H]vinblastine alone 0.3 μg/ml, 60 min
[32] = [3H]vinblastine alone 0.7 μg/ml, 60 min
[33] = [3H]vinblastine alone 1.0 μg/ml, 60 min

Serosal transfer (rat everted gut sacs [1]; [6]): 0.03 ± 0.00 ng/mg of protein | Tissue uptake (rat everted gut sacs [1]; [6]): 0.02 ± 0.00 ng/mg of protein | Total uptake (rat everted gut sacs [1]; [6]): 0.05 ± 0.01 ng/mg of protein | Serosal transfer (rat everted gut sacs [1]; [7]): 0.010 ± 0.000 ng/mg of protein | Tissue uptake (rat everted gut sacs [1]; [7]): 0.006 ± 0.000 ng/mg of protein | Serosal transfer (rat everted gut sacs [1]; [8]): 0.05 ± 0.00 ng/mg of protein | Tissue uptake (rat everted gut sacs [1]; [8]): 0.19 ± 0.03 ng/mg of protein | Total uptake (rat everted gut sacs [1]; [8]): 0.24 ± 0.03 ng/mg of protein | Serosal transfer (rat everted gut sacs [1]; [9]): 0.05 ± 0.07 ng/mg of protein | Tissue uptake (rat everted gut sacs [1]; [9]): 0.75 ± 0.13 ng/mg of protein | Total uptake (rat everted gut sacs [1]; [9]): 1.25 ± 0.07 ng/mg of protein | Serosal transfer (rat everted gut sacs [1]; [10]): 0.000 ng/mg of protein | Tissue uptake (rat everted gut sacs [1]; [10]): 0.001 ng/mg of protein | Total uptake (rat everted gut sacs [1]; [10]): 0.001 ng/mg of protein | Serosal transfer (rat everted gut sacs [1]; [11]): 0.008 ng/mg of protein | Tissue uptake (rat everted gut sacs [1]; [11]): 0.005 ng/mg of protein | Total uptake (rat everted gut sacs [1]; [11]): 0.013 ng/mg of protein | Serosal transfer (rat everted gut sacs [1]; [12]): 0.017 ng/mg of protein | Tissue uptake (rat everted gut sacs [1]; [12]): 0.007 ng/mg of protein | Total uptake (rat everted gut sacs [1]; [12]): 0.024 ng/mg of protein | Serosal transfer (rat everted gut sacs [1]; [13]): 0.027 ng/mg of protein | Tissue uptake (rat everted gut sacs [1]; [13]): 0.025 ng/mg of protein | Total uptake (rat everted gut sacs [1]; [13]): 0.052 ng/mg of protein | Serosal transfer (rat everted gut sacs [1]; [14]): 0.024 ng/mg of protein | Tissue uptake (rat everted gut sacs [1]; [14]): 0.030 ng/mg of protein | Total uptake (rat everted gut sacs [1]; [14]): 0.054 ng/mg of protein | Serosal transfer (rat everted gut sacs [1]; [15]): 0.0017 ± 0.002 ng/mg of protein | Tissue uptake (rat everted gut sacs [1]; [15]): 0.007 ± 0.005 ng/mg of protein | Serosal transfer (rat everted gut sacs [1]; [16]): 0.029 ± 0.005 ng/mg of protein | Tissue uptake (rat everted gut sacs [1]; [16]): 0.082 ± 0.015 ng/mg of protein | Serosal transfer (rat everted gut sacs [1]; [17]): 0.193 ± 0.028 ng/mg of protein | Tissue uptake (rat everted gut sacs [1]; [17]): 0.393 ± 0.078 ng/mg of protein | Serosal transfer (rat everted gut sacs [1]; [18]): 1.131 ± 0.500 ng/mg of protein | Tissue uptake (rat everted gut sacs [1]; [18]): 5.598 ± 1.280 ng/mg of protein | Serosal transfer (rat everted gut sacs [1]; [19]): 3.375 ± 0.900 ng/mg of protein | Tissue uptake (rat everted gut sacs [1]; [19]): 25.734 ± 3.668 ng/mg of protein | serosal transfer time course (rat everted gut sacs [1]; [14C]doxorubicin, levels plateaued after 90 min): only linear for 90 min
SMILES: COc1cccc2c1C(=O)c1c(O)c3c(c(O)c1C2=O)C[C@@](O)(C(=O)CO)C[C@@H]3O[C@H]1C[C@H](N)[C@H](O)[C@H](C)O1 [[^14C]Doxorubicin, doxorubicin]

SMILES: COc1ccc(CCN(C)CCCC(C#N)(c2ccc(OC)c(OC)c2)C(C)C)cc1OC (stereo not shown) [Verapamil, verapamil]
effect on tissue uptake and serosal transfer of [14C]doxorubicin (rat everted gut sacs [2]): significantly (p<0.05, unpaired student T-test) increased | increase of [14C]doxorubicin uptake and accumulation into the tissue (rat everted gut sacs [2]): 2 fold | tissue viability (glucose actively transported) (rat everted gut sacs [3]; verapamil, exception: 40 μg/ml combined with 1 ng/ml [3H]vinblastine): good tissue viability

SMILES: CC[C@]1(O)C[C@@H]2CN(CCc3c([nH]c4ccccc34)[C@@](C(=O)OC)(c3cc4c(cc3OC)N(C)[C@H]3[C@@](O)(C(=O)OC)[C@H](OC(C)=O)[C@]5(CC)C=CCN6CC[C@]43[C@@H]65)C2)C1 [[^3H]Vinblastine, vinblastine]
AUC Control of [^3H]Vinblastine, Blood [4, 20]: 53.47 % Dose/organ weight | AUC Control of [^3H]Vinblastine, Cecum [4, 20]: 20.20 % Dose/organ weight | AUC Control of [^3H]Vinblastine, Faeces [4, 20]: 4.58 % Dose/organ weight | AUC Control of [^3H]Vinblastine, Heart [4, 20]: 1.80 % Dose/organ weight | AUC Control of [^3H]Vinblastine, Kidney [4, 20]: 0.98 % Dose/organ weight | AUC Control of [^3H]Vinblastine, Large Intestinal Wash [4, 20]: 6.46 % Dose/organ weight | AUC Control of [^3H]Vinblastine, Large Intestine [4, 20]: 1.08 % Dose/organ weight | AUC Control of [^3H]Vinblastine, Liver [4, 20]: 4.36 % Dose/organ weight | AUC Control of [^3H]Vinblastine, Lung [4, 20]: 1.54 % Dose/organ weight | AUC Control of [^3H]Vinblastine, Small Intestinal Wash [4, 20]: 36.66 % Dose/organ weight | AUC Control of [^3H]Vinblastine, Small Intestine [4, 20]: 1.69 % Dose/organ weight | AUC Control of [^3H]Vinblastine, Spleen [4, 20]: 2.78 % Dose/organ weight | AUC Control of [^3H]Vinblastine, Stomach [4, 20]: 5.34 % Dose/organ weight | AUC Control of [^3H]Vinblastine, Urine [4, 20]: 1.79 % Dose/organ weight | AUC Control of [3H]Vinblastine ([4]; Blood, 5 min-24 h): 53.47 % Dose/organ weight | AUC Control of [3H]Vinblastine ([4]; Cecum, 5 min-24 h): 20.20 % Dose/organ weight | AUC Control of [3H]Vinblastine ([4]; Faeces, 5 min-24 h): 4.58 % Dose/organ weight | AUC Control of [3H]Vinblastine ([4]; Heart, 5 min-24 h): 1.80 % Dose/organ weight | AUC Control of [3H]Vinblastine ([4]; Kidney, 5 min-24 h): 0.98 % Dose/organ weight | AUC Control of [3H]Vinblastine ([4]; Large Intestinal Wash, 5 min-24 h): 6.46 % Dose/organ weight | AUC Control of [3H]Vinblastine ([4]; Large Intestine, 5 min-24 h): 1.08 % Dose/organ weight | AUC Control of [3H]Vinblastine ([4]; Liver, 5 min-24 h): 4.36 % Dose/organ weight | AUC Control of [3H]Vinblastine ([4]; Lung, 5 min-24 h): 1.54 % Dose/organ weight | AUC Control of [3H]Vinblastine ([4]; Small Intestinal Wash, 5 min-24 h): 36.66 % Dose/organ weight | AUC Control of [3H]Vinblastine ([4]; Small Intestine, 5 min-24 h): 1.69 % Dose/organ weight | AUC Control of [3H]Vinblastine ([4]; Spleen, 5 min-24 h): 2.78 % Dose/organ weight | AUC Control of [3H]Vinblastine ([4]; Stomach, 5 min-24 h): 5.34 % Dose/organ weight | AUC Control of [3H]Vinblastine ([4]; Urine, 5 min-24 h): 1.79 % Dose/organ weight | levels in blood over the time course ([4]; [3H]vinblastine 100 ng/kg alone, 5 min-24 h): remained constant | % of the dose in the stomach ([4]; [3H]vinblastine 100 ng/kg alone, after 1 hour): 1.2-1.6% | % found in the cecum [4, 21]: 1.7±0.3% | % found in the faeces [4, 21]: 0.33±0.03% | % in the blood [4, 22]: 3% | % in the heart [4, 22]: 0.7% | Serosal transfer (rat everted gut sacs [5]; [23]): 0.006 ng/mg of protein | Tissue uptake (rat everted gut sacs [5]; [23]): 0.061 + ng/mg of protein and 0.061 ng/mg of protein | Total uptake (rat everted gut sacs [5]; [23]): 0.067 ng/mg of protein | Serosal transfer (rat everted gut sacs [5]; [24]): 0.002 ± 0.000 ng/mg of protein | Tissue uptake (rat everted gut sacs [5]; [24]): 0.032 ± 0.005 ng/mg of protein | Serosal transfer (rat everted gut sacs [5]; [25]): 0.000 ng/mg of protein | Tissue uptake (rat everted gut sacs [5]; [25]): 0.001 ng/mg of protein | Total uptake (rat everted gut sacs [5]; [25]): 0.001 ng/mg of protein | Serosal transfer (rat everted gut sacs [5]; [26]): 0.002 ng/mg of protein | Tissue uptake (rat everted gut sacs [5]; [26]): 0.005 ng/mg of protein | Total uptake (rat everted gut sacs [5]; [26]): 0.007 ng/mg of protein | Serosal transfer (rat everted gut sacs [5]; [27]): 0.003 ng/mg of protein | Tissue uptake (rat everted gut sacs [5]; [27]): 0.032 ng/mg of protein | Total uptake (rat everted gut sacs [5]; [27]): 0.035 ng/mg of protein | Serosal transfer (rat everted gut sacs [5]; [28]): 0.006 ng/mg of protein | Tissue uptake (rat everted gut sacs [5]; [28]): 0.049 ng/mg of protein | Total uptake (rat everted gut sacs [5]; [28]): 0.055 ng/mg of protein | Serosal transfer (rat everted gut sacs [5]; [29]): 0.008 ng/mg of protein | Tissue uptake (rat everted gut sacs [5]; [29]): 0.050 ng/mg of protein | Total uptake (rat everted gut sacs [5]; [29]): 0.058 ng/mg of protein | Serosal transfer (rat everted gut sacs [5]; [30]): 0.000 ± 0.000 ng/mg of protein | Tissue uptake (rat everted gut sacs [5]; [30]): 0.009 ± 0.000 ng/mg of protein | Serosal transfer (rat everted gut sacs [5]; [31]): 0.001 ± 0.000 ng/mg of protein | Tissue uptake (rat everted gut sacs [5]; [31]): 0.011 ± 0.001 ng/mg of protein | Serosal transfer (rat everted gut sacs [5]; [32]): 0.002 ± 0.001 ng/mg of protein | Tissue uptake (rat everted gut sacs [5]; [32]): 0.017 ± 0.001 ng/mg of protein | Serosal transfer (rat everted gut sacs [5]; [33]): 0.003 ± 0.001 ng/mg of protein | Tissue uptake (rat everted gut sacs [5]; [33]): 0.029 ± 0.007 ng/mg of protein | tissue viability (glucose actively transported) (rat everted gut sacs [3]; [3H]vinblastine, exception: concentrations higher than 1 ng/ml): good tissue viability
